Measured values from patent publication US9364468B2, “Pharmaceutical composition for preventing or treating tuberculosis” (INDUSTRY-ACADEMIC COOPERATION FOUNDATION, YONSEI UNIVERSITY, priority 2012, dated 2016).

Key:
[1] = test system: carbon monoxide dehydrogenase (CO-DH); test: CO-DH activity assay (INT reduction in the presence of CO, enzyme extract); type: biochemical; conditions: 12.5 μM compound; relative to control group set to 100%
Method: In order to obtain an enzyme extract to be used for the measurement of CO-DH activity, the bacteria cultured according to respective experiment conditions were collected by centrifugation at 18,000×g for 10 minutes at 4° C. (Eppendorf centrifuge-5403, Hamburg, Germany), washed twice with a 50 mM Tris-HCl (pH 7.5) buffer solution, and re-suspended in […] of a 50 mM Tris-HCl (pH 7.5) buffer solution. The suspended bacteria were homogenized at 0° C. by repeating 20 times of ultrasonication using an ultrasonic processor (Sonics & Materials Inc., Danbury, Conn.) wherein the ultrasonication was conducted such that ultrasonic wave at 20% amplitude was applied for 3 seconds and paused for 10 seconds. The homogenized culture solution was collected by centrifugation at 18,000×g for 30 minutes at 4° C. (Eppendorf centrifuge-5403), and a supernatant was used as an enzyme extract.
Proteins were quantified using bovine serum albumin (BSA) as a standard protein according to the method of Bradford (1976).
CO-DH activity was determined by measuring the reduction rate of 2-(4-indophenyl)-3-(4-nitrophenyl)-2H-tetrazolium chloride (INT, Sigma, ε496=17.981 mM^−1 cm^−1) in the presence of CO. Here, 1-methoxyphenazine methosulfate (MPMS, Sigma) was used as an electron transfer mediator between CO-DH and INT. A mixture solution of 19.2 ml of 50 mM Tris-HCl (pH 7.5), 250 μl of INT (9.8 mM), 50 μl of MPMS (8.9 mM), and 500 μl of Triton X-100 (25%, v/v) was saturated with CO gas. 800 μl of the resultant solution was added into a plastic cuvette, and then each compound was added thereto to a final concentration of 12.5 μM. Last, 800 μl of the enzyme extract was added thereto, followed by reaction at 30° C. for 200 seconds. Here, the absorbance change is due to red formazan generated resulting from INT reduction, and was measured at 496 nm by using a spectrophotometer (U-2000, Hitachi) equipped with a temperature adjuster. Enzyme specific activity was expressed as nmoles of reduced INT per mg of protein per minute (nmol/mg protein/min). The enzyme specific activity of each compound treatment group was expressed as a percentage of the control group of which enzyme specific activity was set to 100%, and the results were summarized in Table 1.

[2] = test system: Vero cell line (ATCC CCL-81); test: Cytotoxicity test, CellTiter 96 Non-Radioactive Cell Proliferation Assay, Vero cell line; type: cell-based; conditions: Chlorocebus sabaeus, 72 h, 3 days
[3] = test system: marrow cell-derived macrophages; test: Cytotoxicity test, CellTiter 96 Non-Radioactive Cell Proliferation Assay, marrow cell-derived macrophages; type: cell-based; conditions: Mus musculus, Macrophage
Method: For preparation of mouse macrophages, the mouse femur was severed and then both ends thereof were cut. A 1-ml syringe was filled with the RPMI-1640 medium (Gibco), which was then used to isolate and take marrow cells in the femur. Blood cells were removed from the taken marrow cells by a low-osmotic buffer, and then the number of marrow cells was measured using a microscope. After appropriate dilution with the RPMI-1640 medium, the marrow cells were seeded in a 96-well microplate at 100,000 cells per well. After culturing in a CO2 incubator at 37° C. for 2 hours, cells other than the marrow cells were removed through exchange with a new RPMI-1640 medium. The medium was substituted with a culture supernatant of L929 cells, followed by culturing for 3 days. Again, the medium was substituted with a new culture supernatant of L929 cells, followed by culturing for 3 days.
Cytotoxicity was measured according to the method of Promega Inc., and 15 μl of a staining solution was applied to each well of the 96-well plate. The cells were incubated in a CO2 incubator at 37° C. for 4 hours, and then 100 μl of a quiescent solution was applied thereto. The absorbance of each well was measured at 570 nm using an absorbance measurement equipment from Molecular Devices. The absorbance values of wells not containing the compounds of Chemical Formulas 1 to 4 were compared with those of wells containing the compounds of Chemical Formulas 1 to 4 to determine the inhibition (%). The correlation between inhibition and concentration was calculated using the Prism software from Graphpad to determine IC50 (concentration at 50% inhibition) value. The marrow cell-derived macrophages were prepared by the method as described in Example 3 above.

[4] = test system: Mycobacterium sp. strain JC1 wild type; test: CFU inhibition of JC1 wild type by compound alone; type: cell-based; conditions: read-out: Compound analog + JC 1 wild type (percentage (%) of CFU inhibition)

COC(=O)c1ccsc1NC(=O)CSc1ccncc1 [Compound 1]
Inhibition of CO-DH activity [1]: 48% | IC50 [2]: 75.2 µM | IC50 [3]: > 100 µM | inhibition at 12.5 µM [4]: 0% | inhibition at 25 µM [4]: 2% | inhibition at 50 µM [4]: 6%

COC(=O)c1ccccc1NC(=O)CSc1ccc(Br)cc1 [Compound 2]
Inhibition of CO-DH activity [1]: 18% | IC50 [2]: 36.4 µM | IC50 [3]: > 100 µM | inhibition at 12.5 µM [4]: 3% | inhibition at 25 µM [4]: 9% | inhibition at 50 µM [4]: 12%

COC(=O)c1ccccc1NC(=O)CSc1ccccn1 [Compound 3]
Inhibition of CO-DH activity [1]: 15% | IC50 [2]: 109 µM | IC50 [3]: > 100 µM | inhibition at 12.5 µM [4]: 4% | inhibition at 25 µM [4]: 2% | inhibition at 50 µM [4]: 8%

COC(=O)c1ccc(Cl)cc1NC(=O)CCSc1ccccn1 [Compound 4]
Inhibition of CO-DH activity [1]: 7% | IC50 [2]: 158 µM | IC50 [3]: > 100 µM | inhibition at 12.5 µM [4]: 2% | inhibition at 25 µM [4]: 4% | inhibition at 50 µM [4]: 16%
